According to article PMC11206759, “Synthesis, Docking, and DFT Studies on Novel Schiff Base Sulfonamide Analogues as Selective COX-1 Inhibitors with Anti-Platelet Aggregation Activity” (Pharmaceuticals, 2024):
pIC50: −log10 of the molar value. Like-named read-outs stand apart in the source and are kept apart here.

Assays:
COX-1 = conditions: cited from earlier work; for pIC50: read-out: IC50 COX-1; for selectivity index: COX-1 selectivity
COX-2 = conditions: cited from earlier work
[1] = test system: platelet aggregation induced by collagen; experiment: Anti-platelet aggregation assay, collagen-induced; assay type: cell-based; conditions: for pIC50 / Collagen Inhibition Rate (%) ± SD: platelet aggregation induced by 0.33 U/mL collagen; for pIC50: 4 working concentrations; for Collagen Inhibition Rate (%) ± SD: mean ± SD of three values
Description: (§1) Furthermore, the target compounds 10–13 were capable of inhibiting the platelet aggregation induced by 10 μM ADP and 0.33 U/mL collagen.
(§2) The anti-platelet aggregation assays were performed according to the method reported by XIE et al. (Supplementary Materials).

human recombinant COX-2 = biological target: T1, human recombinant COX-2 (Homo sapiens, UniProt P35354); experiment: Cyclooxygenase inhibition assay (EIA kit), COX-2; assay type: biochemical; conditions: human recombinant COX-2, EIA kit
T1 construct: purchased Cayman Chemical 560131
T1 sequence (P35354 18-604): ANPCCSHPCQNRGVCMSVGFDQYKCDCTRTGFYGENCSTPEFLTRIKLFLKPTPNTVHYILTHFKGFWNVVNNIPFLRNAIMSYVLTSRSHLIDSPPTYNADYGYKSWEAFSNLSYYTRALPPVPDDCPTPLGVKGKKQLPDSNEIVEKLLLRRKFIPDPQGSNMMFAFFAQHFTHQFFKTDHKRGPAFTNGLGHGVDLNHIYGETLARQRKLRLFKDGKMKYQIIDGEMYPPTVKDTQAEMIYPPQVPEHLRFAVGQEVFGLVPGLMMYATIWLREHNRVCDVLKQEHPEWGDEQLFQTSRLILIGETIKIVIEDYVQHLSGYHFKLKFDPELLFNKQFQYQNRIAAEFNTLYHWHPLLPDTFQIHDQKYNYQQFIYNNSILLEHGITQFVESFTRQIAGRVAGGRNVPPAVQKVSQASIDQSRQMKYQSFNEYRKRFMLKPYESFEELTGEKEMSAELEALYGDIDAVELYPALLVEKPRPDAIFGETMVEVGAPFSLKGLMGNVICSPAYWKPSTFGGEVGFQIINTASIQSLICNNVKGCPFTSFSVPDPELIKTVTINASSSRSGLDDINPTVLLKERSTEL

human recombinant COX-1 = experiment: Cyclooxygenase inhibition assay (EIA kit), COX-1; assay type: biochemical; conditions: COX-1 over COX-2
[2] = test system: platelet aggregation induced by ADP; experiment: Anti-platelet aggregation assay, ADP-induced; assay type: cell-based; conditions: for pIC50 / ADP Inhibition Rate (%) ± SD: platelet aggregation induced by 10 μM ADP; for pIC50: 4 working concentrations; for ADP Inhibition Rate (%) ± SD: mean ± SD of three values
Description: as §1, §2

## COc1ccc(-c2ncc(C)nc2-c2ccc(S(N)(=O)=O)cc2)cc1 [IV]
COX-1; previous examples of Figure 1
  pIC50: 4.01
COX-2; previous examples of Figure 1
  pIC50: 6.34

## CS(=O)(=O)c1ccc(-c2nc(NCc3ccc(F)cc3)cc(C(F)(F)F)n2)cc1 [IX]
COX-1; previous examples of Figure 1
  COX-1 activity: not active
COX-2; previous examples of Figure 1
  pIC50: 8.15

## O=S(=O)(Nc1ncccn1)c1ccc(/N=C/c2ccccc2O)cc1 [Compound 11, (E)-4-(2-Hydroxybenzylideneamino)-N-(pyrimidin-2-yl)benzenesulfonamide]
[1]
  pIC50: 5.99
  Collagen Inhibition Rate (%) ± SD: 76.35 ± 1.34%
Human recombinant COX-2
  IC50: 15.2 µM
Human recombinant COX-1
  COX1 Selectivity Index: 3.16
[2]
  pIC50: 6.60
  ADP Inhibition Rate (%) ± SD: 84.36 ± 1.64%

## CC(=O)Oc1ccccc1C(=O)O [Aspirin]
[1]
  pIC50: 6.29
  Collagen Inhibition Rate (%) ± SD: 64.3 ± 1.38%
[2]
  pIC50: 6.31
  ADP Inhibition Rate (%) ± SD: 92.36 ± 1.5%

## Oc1ccc(/C=C/c2cc(O)cc(O)c2)cc1 [Compound II]
COX-1
  selectivity index: around 200 folds
  pIC50: 4.82

## O=S(=O)(Nc1cnc2ccccc2n1)c1ccc(/N=C/c2ccco2)cc1 [Compound 12, (E)-4-(Furan-2-ylmethyleneamino)-N-(quinoxalin-2-yl)benzenesulfonamide]
[1]; fold versus aspirin
  activity compared to aspirin, collagen: 4.25 folds
[1]
  pIC50: 6.92
  Collagen Inhibition Rate (%) ± SD: 95.9 ± 1.39%
Human recombinant COX-2
  IC50: 13.3 µM
Human recombinant COX-1
  COX1 Selectivity Index: 18.69
[2]; fold versus aspirin
  reactivity compared to aspirin, ADP: 4.45 folds
[2]
  pIC50: 6.96
  ADP Inhibition Rate (%) ± SD: 98.1 ± 1.68%

## COc1ccc(-n2cc(-c3ccco3)c(C(F)(F)F)n2)cc1 [XI]
COX-1
  pIC50: 5.47
COX-2; Figure 1
  pIC50: < 4.30

## COc1ccc(-c2nc3ccccc3nc2-c2ccc(S(C)(=O)=O)cc2)cc1 [III]
COX-1; previous examples of Figure 1
  pIC50: < 4.52
COX-2; previous examples of Figure 1
  pIC50: 6.40

## NS(=O)(=O)c1ccc(-c2nccnc2-c2ccc(F)cc2)cc1 [V]
COX-1; previous examples of Figure 1
  pIC50: < 3.52
COX-2; previous examples of Figure 1
  pIC50: 5.97

## NS(=O)(=O)c1ccc(-c2nc(Cl)cc(NCc3cccs3)n2)cc1 [VI]
COX-2; COX-2 selectivity, Figure 1
  SI: > 81,300
COX-2; previous examples of Figure 1
  pIC50: 8.92

## O=S(=O)(Nc1cnc2ccccc2n1)c1ccc(/N=C/c2ccccc2O)cc1 [Compound 13, (E)-4-(2-Hydroxybenzylideneamino)-N-(quinoxalin-2-yl)benzenesulfonamide]
[1]
  Collagen Inhibition Rate (%) ± SD: 45.36 ± 1.56%
Human recombinant COX-2
  IC50: 9.26 µM
Human recombinant COX-1
  COX1 Selectivity Index: 2.87
[2]
  ADP Inhibition Rate (%) ± SD: 46.32 ± 1.32%

## Nc1onc(-c2ccc(Cl)o2)c1-c1ccccc1 [X]
COX-1
  pIC50: 5.96
COX-2; Figure 1
  pIC50: < 4.30

## O=S(=O)(Nc1ncccn1)c1ccc(/N=C/c2ccco2)cc1 [Compound 10, (E)-4-(Furan-2-ylmethyleneamino)-N-(pyrimidin-2-yl)benzenesulfonamide]
[1]
  pIC50: 6.21
  Collagen Inhibition Rate (%) ± SD: 89.36 ± 1.23%
Human recombinant COX-2
  IC50: 11.3 µM
Human recombinant COX-1
  COX1 Selectivity Index: 5.86
[2]
  pIC50: 6.43
  ADP Inhibition Rate (%) ± SD: 78.36 ± 1.36%

## Nc1ccc(S(=O)(=O)Nc2ccc(Cl)cc2)cc1 [Compound I]
COX-1
  selectivity index: approximately 100 folds
  pIC50: 4.92

## Cc1cnc2c(-c3ccc(F)cc3)c(-c3ccc(S(C)(=O)=O)cc3)nn2c1C [VIII]
COX-1
  pIC50: 4.89
COX-2
  pIC50: 6.22
